{"source": "patent US20100278789A1", "about": "“METHODS OF GENERATING EXPANDED AND RE-DIFFERENTIATED ADULT ISLET BETA CELLS CAPABLE OF PRODUCING INSULIN” (priority 2007, published 2010)", "key": {"[1]": {"system": "Beta cell derived labeled cells at P5", "test": "Insulin expression (RT-PCR) in beta cell derived labeled cells treated with gamma-secretase inhibitor", "format": "cell-based, human", "details": "300 nM, 4 days, vs untreated or DMSO", "description": "Beta cell derived labeled cells at P5 treated for 4 days with 300 nM gamma-secretase inhibitor (S,S)-2-[2-(3,5-difluorophenyl)acetylamino]-N-(5-methyl-6-oxo-6,7-dihydro-5H-dibenzo [b,d]azepin-7-yl)propionamide (DBZ). Control cells were either untreated, or treated with DMSO (solvent). Medium with compound was changed every 48 hours.\nRT-PCR analyses: As described for Example 1."}, "[2]": {"system": "cultured human islet cells", "test": "Immunoblotting for cleaved PARP (apoptosis) in islet cells", "format": "cell-based", "description": "(§1) HES1 inhibition and lineage tracing: HES1 shRNA ([…])—SEQ ID NO: 7 and a non-target shRNA, cloned in pLKO.1 lentiviral vector, were obtained from the RNAi Consortium (Sigma-Aldrich). Virus was produced in 293T cells following cotransfection with the pCMVdR8.91 and pMD2.G packaging plasmids. The culture medium was harvested 48 hours later. Islet cells cultured for 1-2 days were washed with PBS and infected at MOI 2.5:1 in CMRL 1066 medium containing 8 μg/ml polybrene overnight. The medium was then replaced with regular culture medium. Four days after infection, the cells were selected for puromycin resistance (1 μg/ml) for 3 days. Two weeks after infection the cells were harvested for further analysis. Lineage tracing was performed using the RIP-Cre and a pTrip CMV-loxP-DsRed2-loxP-eGFP viruses as described herein below. Briefly, islet cells cultured for 1-2 days were infected with a 1:1:1 mixture of the 3 viruses (shRNA+RIP-Cre+pTrip CMV-loxP-DsRed2-loxP-eGFP) at a total MOI 4:1. Selection and further analysis were carried out as above.\n(§2) Immunoblotting: Total cellular protein was extracted in 0.5% NP40 containing a protease inhibitor cocktail (Roche). Protein concentration was determined by the BCA method (Pierce, Rockford, Ill.). […] Loading was monitored using goat-anti-beta-actin (Santa Cruz, 1:1000). […]"}, "[3]": {"system": "HES1", "test": "Screening of 4 HES1 shRNA sequences in 293T cells, HES1 immunoblotting", "format": "cell-based", "description": "Immunoblotting: Total cellular protein was extracted in 0.5% NP40 containing a protease inhibitor cocktail (Roche). Protein concentration was determined by the BCA method (Pierce, Rockford, Ill.). 70 μg protein were separated on 12% sodium dodecyl sulphate-polyacrylamide gels and electroblotted onto PDF membranes. The membranes were incubated with rabbit-anti-HES1 (1:1000) or rabbit-anti-PARP (Cell Signaling, 1:1000). Loading was monitored using goat-anti-beta-actin (Santa Cruz, 1:1000). The bound antibody was visualized with the appropriate horseradish peroxidase-conjugated anti-IgG (Jackson) and SuperSignal West Pico Chemiluminescent Substrate (Pierce). Cells treated with 1 μm staurosporine for 6 hours were used as positive control for the PARP blot.\nInhibition of HES1 expression prevents induction of beta-cell replication: To further correlate the induction of beta-cell replication with HES1 upregulation, HES1 induction during the initial weeks of culture was inhibited using shRNA. […] Isolated human islets were dissociated, and the cells were infected with a lentivirus encoding HES1 shRNA before culture under standard conditions. Selection for drug resistance allowed elimination of uninfected cells. Cells infected with a non-target shRNA lentivirus and selected under similar conditions served as control. […]"}, "[4]": {"system": "HES1", "test": "Immunoblotting for HES1 in islet cells infected at culture initiation with HES1 shRNA virus", "format": "cell-based, human", "details": "islet cells infected after 1-2 days of culture, analysed 14 days after infection", "description": "as §1, §2"}, "[5]": {"system": "cultured human islet cells", "test": "Replication of cultured islet cells (BrdU incorporation, Ki67 staining) after HES1 shRNA infection", "format": "cell-based", "details": "14 days after infection", "description": "as §1\n(§3) Immunofluorescence: Cells were plated in 24-well plates on sterilized coverslips and fixed in 4% paraformaldehyde. Cells were permeabilized with 0.25% NP40 for 10 minutes and blocked for 10 minutes at room temperature in 1% bovine serum albumin, 10% FBS, and 0.2% saponin. […]"}, "[6]": {"system": "cultured human islet cells", "test": "qPCR analysis of RNA from islet cells 14 days after HES1 shRNA infection", "format": "cell-based", "details": "14 days after infection", "description": "as §1\nRNA analyses: Total RNA was extracted using High Pure RNA isolation kit (Roche). cDNA was synthesized using SuperScript III (Invitrogen). qPCR was performed using a Prism 7300 ABI Real Time PCR System (Applied Biosystems). Relative quantitative analysis was performed according to the comparative CT method by using the arithmetic formula 2̂^−(ΔΔct). The cDNA levels were normalized to human ribosomal protein P0 (RPLP0) cDNA."}, "[7]": {"system": "cultured human islet cells", "test": "Insulin immunostaining of islet cells and eGFP+ cells after HES1 shRNA infection", "format": "cell-based", "description": "as §1, §3"}, "[8]": {"system": "dedifferentiated human islet cells expanded in culture", "test": "Redifferentiation of dedifferentiated expanded human islet cells by HES1 shRNA (immunoblotting, RT-PCR, insulin ELISA, morphology)", "format": "cell-based", "description": "Human islet cells were cultured for 4-5 weeks as described for Example 1. They were then infected with lentiviruses expressing HES1 (SEQ ID NO: 7) or nontarget shRNAs. Nine days following infection the cells were analyzed as described for Example 1. Primers used for RT-PCR analysis are described in Table 1, herein above, […]"}, "[9]": {"system": "sorted eGFP+ cells derived from beta cells", "test": "HES1 shRNA in sorted eGFP+ cells expanded 7 population doublings, qRT-PCR and morphology", "format": "cell-based, human", "description": "Virus was produced in 293T cells following cotransfection with the pCMVdR8.91 and pMD2.G packaging plasmids. The culture medium was harvested 48 hours later. […] They were then infected with HES1 or nontarget shRNA viruses, and 4 days later trypsinized and shifted to serum free medium (SFM). RNA was extracted following 4 more days and analyzed by qRT-PCR.\nRNA analyses: As described for Example 1."}, "[10]": {"system": "eGFP+ human islet cells", "test": "Insulin immunostaining of eGFP+ islet cells incubated with diazoxide after viral infection", "format": "cell-based", "set-up": "dose or concentration left out as unconfirmed", "details": "diazoxide following viral infection, days 5-6 of culture"}, "[11]": {"details": "cells cultured 4-5 weeks, 9 days after infection, immunoblotting"}}, "data": [{"compound": "C[C@H](NC(=O)Cc1cc(F)cc(F)c1)C(=O)N[C@@H]1C(=O)N(C)c2ccccc2-c2ccccc21", "note": "[gamma secretase inhibitor, (S,S)-2-[2-(3,5-difluorophenyl)acetylamino]-N-(5-methyl-6-oxo-6,7-dihydro-5H-dibenzo [b,d]azepin-7-yl)propionamide]", "values": [{"measurement": "insulin expression", "setting": "[1]", "value": "increase"}]}, {"compound": "CN[C@@H]1C[C@H]2O[C@@](C)([C@@H]1OC)n1c3ccccc3c3c4c(c5c6ccccc6n2c5c31)C(=O)NC4", "note": "[staurosporin, staurosporine, reference compound]", "values": [{"measurement": "PARP cleavage, immunoblotting (positive control)", "setting": "[2]; uninfected cells, 1 μm staurosporine for 6 hours", "value": "cleaved PARP"}]}, {"compound": "TGGCCAGTTTGCTTTCCTCAT (chemistry not given here) [HES1 shRNA, HES1 shRNA cloned in pLKO.1 lentiviral vector, obtained from the RNAi Consortium (Sigma-Aldrich)]", "values": [{"measurement": "efficiency among 4 HES1 shRNA sequences, based on reduction in HES1 protein levels", "setting": "[3]", "value": "most efficient"}, {"measurement": "HES1 protein levels, lower compared with cells infected with the control virus", "setting": "[4]", "value": "up to 6 ×"}, {"measurement": "replication rate, Ki67 staining in eGFP+ cells derived from beta cells", "setting": "[5]", "value": "lower replication rate"}, {"measurement": "cell proliferation, staining for BrdU incorporation", "setting": "[5]; compared with control vector", "value": "diminished cell proliferation"}, {"measurement": "cell apoptosis, immunoblotting for cleaved PARP", "setting": "[2]; HES1 shRNA virus vs non-target virus, 14 days after infection", "value": "did not correlate with an increase in cell apoptosis"}, {"measurement": "insulin transcripts, lower compared with primary islets", "setting": "[6]", "value": 20, "unit": "fold"}, {"measurement": "levels of NOTCH transcripts", "setting": "[6]", "value": "did not affect"}, {"measurement": "levels of PDX1 and NEUROD1 transcripts relative to primary islets", "setting": "[6]", "value": "comparable to those in primary islets"}, {"measurement": "insulin transcripts, higher compared with cells infected with control virus", "setting": "[6]; p<0.01", "value": 5.7, "unit": "fold"}, {"measurement": "p57 transcripts, higher than in cells infected with control virus", "setting": "[6]; p<0.04", "value": 5.7, "unit": "fold"}, {"measurement": "PDX1 transcript levels, higher than control virus", "setting": "[6]; p<0.05", "value": 5.6, "unit": "fold"}, {"measurement": "NEUROD1 transcript levels, higher than control virus", "setting": "[6]; p<5.45×10^−5", "value": 3.7, "unit": "fold"}, {"measurement": "fraction of insulin-positive cells among eGFP+ cells, higher", "setting": "[7]", "value": 3, "unit": "fold"}, {"measurement": "number of insulin-positive cells, higher than control virus", "setting": "[7]; p<0.016", "value": 4, "unit": "fold"}, {"measurement": "insulin expression by insulin ELISA and immunostaining", "setting": "[8]; 9 days after infection", "value": "increase"}, {"measurement": "NEUROD1 transcripts", "setting": "[8]; 9 days after infection, RT-PCR", "value": "significant increase"}, {"measurement": "PDX1 transcripts", "setting": "[8]; 9 days after infection, RT-PCR", "value": "significant increase"}, {"measurement": "insulin transcripts", "setting": "[8]; 9 days after infection, RT-PCR", "value": "significant increase"}, {"measurement": "p57, RNA analysis", "setting": "[8]; 9 days after infection, RT-PCR", "value": "increase"}, {"measurement": "cellular HES1 protein levels", "setting": "[8]; [11]", "value": "decrease"}, {"measurement": "p57 levels (protein)", "setting": "[8]; [11]", "value": "increase"}, {"measurement": "morphological change", "setting": "[8]; cells expressing HES1 shRNA", "value": "tended to form clusters"}, {"measurement": "upregulation of transcripts encoding insulin, PDX1, NEUROD1, IAPP, and PC1", "setting": "[9]; eGFP+ vs eGFP− cells, qRT-PCR", "value": "occurred preferentially in eGFP^+ cells"}, {"measurement": "induction of beta-cell transcripts, combination of SFM with HES1 shRNA", "setting": "[9]; shRNA infection, 4 days later shifted to SFM, RNA after 4 more days", "value": "pronounced additive effect"}, {"measurement": "morphological changes in response to HES1 shRNA, eGFP+ compared with eGFP− cells", "setting": "[9]; sorted cells", "value": "much more pronounced in eGFP^+ cells"}]}, {"compound": "CC1=NS(=O)(=O)c2cc(Cl)ccc2N1", "note": "[diazoxide]", "values": [{"measurement": "fraction of eGFP+ cells that were insulin-positive", "setting": "[10]", "value": "84.8±5.8", "unit": "%"}]}]}
